Assays:
[1] = system: PMM-deficient fibroblasts; test: Multiplexed proteomics of PMM-deficient fibroblasts treated with epalrestat or vehicle; type: cell-based, human
From the text: Proteomics and glycoproteomics: Cell were scraped in PBS, pH 7.4 and sonicated with a tip sonicator at 40% amplitude for 3 cycles of 10 seconds each. Equal amount of proteins were digested with trypsin as described elsewhere (Mun et al., Anal Chem 92:14466-14475, 2020). The digested peptides were labeled with tandem mass tag (TMT) reagents as per the manufacturer's instructions (ThermoFisher). Labelled samples were pooled, and either size-exclusion chromatography or basic pH reversed-phase fractionation was performed. An aliquot of dried peptides was resuspended in 100 μL of 0.1% formic acid and injected into Superdex peptide 10/300 column (GE Healthcare). Twenty-one (21) early fractions were collected starting at 10 minutes after injection (total run time of 130 minutes) and analyzed by LC-MS/MS as described elsewhere (Mun et al., supra). Another aliquot of total peptides was cleaned up by C18 TopTips (Glygen) and fractionated by bRPLC on a reversed phase C18 column (4.6×100 mm column). Twelve (12) fractions were dried and re-suspended in 0.1% formic acid for LC-MS/MS analysis.
A modification of the LC-MS/MS parameters described by Mun et al. (supra) were used. Specifically, 21 early fractions from SEC and 12 fractions of bRPLC were analyzed by Orbitrap Exploris480 mass spectrometer (Thermo Fisher Scientific) coupled to an EASY-Spray column (Thermo Fisher Scientific). Every run was 130 minutes with a flow rate of 300 nL/minute. The gradient used for separation was: equilibration at 3% solvent B from 0 to 4 minutes, 3% to 10% sol B from 4 to 10 minutes, 10% to 35% sol B from 10.1 to 125 minutes, and 35% to 80% sol B from […]. All experiments were done in DDA mode with the top 15 ions isolated at a window of 0.7 m/z and a default charge state of +2. Charge states ranging from +2 to +7 were considered for MS/MS events. Stepped collision energy was applied to precursors at normalized collision energies of 15, 25, and 40. The MS precursor mass range was set to 375 to 2000 m/z and 100 to 2000 for MS/MS. The automatic gain control for MS and MS/MS were 1×10^6 and 1×10^5 and the injection times to reach AGC were 50 ms and 250 ms, respectively. 60 second dynamic exclusion was applied. Data acquisition was performed with the option of Lock mass (441.1200025 m/z) for all data.
Database searching and analysis: The publicly available software pGlyco Version 2.2.0 was used (Zeng et al., Sci Rep 6:25102, 2016; and Liu et al., Nat Commun 8:438, 2017). A glycan database containing 8,092 entries and Uniprot Human Reviewed protein sequences (20,432 entries) were used as protein sequence fasta files. […] Reporter ion quantification was performed in Proteome Discoverer 2.5 using “reporter ion quantifier” node and Ids were matched with quantitation on a scan-to-scan basis (MS/MS). […]

[2] = system: fibroblasts from PMM2-CDG patients; test: Sorbitol and mannitol levels (GC-MS) in fibroblasts treated with epalrestat for 5 days; type: cell-based, human; details: fibroblasts from 5 PMM2-CDG patients vs 5 healthy controls, 10 μM epalrestat 5 days
Experimental: Metabolomics measurements: Fibroblasts derived from patients carrying selected heterozygous mutations in PMM2 (R141H/F119L, R141H/E139K, R141H/N216I, and R141H/F183S) and healthy controls were cultured according to a protocol described elsewhere (Radenkovic et al., Am J Hum Genet. 2019, 104(5):835-846). Cells were grown in specialized medium and treated with 10 μM epalrestat (Iyer et al., supra) for 5 days with two changes of medium. Non-treated fibroblasts from both groups were used as negative controls. Global metabolomic changes were probed by LC/MS.
Polyols also were analyzed by GC due to the inability of LC/MS to distinguish between the same sized metabolites ([…], GLC1P, GLC6P, sorbitol/mannitol/galactitol, etc.) (Radenkovic et al., supra).

Compound: CC(/C=C1\SC(=S)N(CC(=O)O)C1=O)=C\c1ccccc1 [epalrestat]
- Sorbitol dehydrogenase (SORD) increase in abundance ([1]; epalrestat-treated vs untreated PMM2-CDG fibroblasts): 11%
- number of proteins increased post treatment (30% cutoff) ([1]; of the 13 changed proteins): 12
- number of proteins different post-treatment with a 30% or bigger change cutoff ([1]; paired analysis before and after epalrestat): 13 proteins
- number of proteins different post-treatment ([1]; paired analysis before and after epalrestat, P1-P6 fibroblasts): 628 proteins
- sorbitol concentration, mean ratio after treatment ([2]; 1.4 prior to treatment, p=0.00013): 1.25
- mannitol concentration, mean ratio after treatment ([2]; 1.5 prior to treatment, p=0.064): 1.2

Reference: US20240003908A1, “POLYOL BIOMARKERS FOR CONGENITAL DISORDERS OF GLYCOSYLATION” (Mayo Foundation for Medical Education and Research, priority 2020, published 2024)
